Tests used:
F508delCFTR [1] = biological target: T1, F508delCFTR (Homo sapiens, UniProt P13569, DEL508-508); assay: Cell Surface Expression-Horse Radish Peroxidase (CSE-HRP) assay, test compound with co-corrector; type: cell-based; settings: for Maximum % activity (with co-corrector): maximum at any tested concentration;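 as to Maximum % activity (with co-corrector): percent of 2 µM positive control corrector over DMSO; co-corrector is that same compound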
T1 construct: expressed in transfected cells; host or cells: CFBE41o- human lung-derived epithelial cells (CFBE41o-F508delCFTR-HRP), doxycycline-inducible
T1 sequence (P13569 with tags, fused parts or gaps DEL508-508): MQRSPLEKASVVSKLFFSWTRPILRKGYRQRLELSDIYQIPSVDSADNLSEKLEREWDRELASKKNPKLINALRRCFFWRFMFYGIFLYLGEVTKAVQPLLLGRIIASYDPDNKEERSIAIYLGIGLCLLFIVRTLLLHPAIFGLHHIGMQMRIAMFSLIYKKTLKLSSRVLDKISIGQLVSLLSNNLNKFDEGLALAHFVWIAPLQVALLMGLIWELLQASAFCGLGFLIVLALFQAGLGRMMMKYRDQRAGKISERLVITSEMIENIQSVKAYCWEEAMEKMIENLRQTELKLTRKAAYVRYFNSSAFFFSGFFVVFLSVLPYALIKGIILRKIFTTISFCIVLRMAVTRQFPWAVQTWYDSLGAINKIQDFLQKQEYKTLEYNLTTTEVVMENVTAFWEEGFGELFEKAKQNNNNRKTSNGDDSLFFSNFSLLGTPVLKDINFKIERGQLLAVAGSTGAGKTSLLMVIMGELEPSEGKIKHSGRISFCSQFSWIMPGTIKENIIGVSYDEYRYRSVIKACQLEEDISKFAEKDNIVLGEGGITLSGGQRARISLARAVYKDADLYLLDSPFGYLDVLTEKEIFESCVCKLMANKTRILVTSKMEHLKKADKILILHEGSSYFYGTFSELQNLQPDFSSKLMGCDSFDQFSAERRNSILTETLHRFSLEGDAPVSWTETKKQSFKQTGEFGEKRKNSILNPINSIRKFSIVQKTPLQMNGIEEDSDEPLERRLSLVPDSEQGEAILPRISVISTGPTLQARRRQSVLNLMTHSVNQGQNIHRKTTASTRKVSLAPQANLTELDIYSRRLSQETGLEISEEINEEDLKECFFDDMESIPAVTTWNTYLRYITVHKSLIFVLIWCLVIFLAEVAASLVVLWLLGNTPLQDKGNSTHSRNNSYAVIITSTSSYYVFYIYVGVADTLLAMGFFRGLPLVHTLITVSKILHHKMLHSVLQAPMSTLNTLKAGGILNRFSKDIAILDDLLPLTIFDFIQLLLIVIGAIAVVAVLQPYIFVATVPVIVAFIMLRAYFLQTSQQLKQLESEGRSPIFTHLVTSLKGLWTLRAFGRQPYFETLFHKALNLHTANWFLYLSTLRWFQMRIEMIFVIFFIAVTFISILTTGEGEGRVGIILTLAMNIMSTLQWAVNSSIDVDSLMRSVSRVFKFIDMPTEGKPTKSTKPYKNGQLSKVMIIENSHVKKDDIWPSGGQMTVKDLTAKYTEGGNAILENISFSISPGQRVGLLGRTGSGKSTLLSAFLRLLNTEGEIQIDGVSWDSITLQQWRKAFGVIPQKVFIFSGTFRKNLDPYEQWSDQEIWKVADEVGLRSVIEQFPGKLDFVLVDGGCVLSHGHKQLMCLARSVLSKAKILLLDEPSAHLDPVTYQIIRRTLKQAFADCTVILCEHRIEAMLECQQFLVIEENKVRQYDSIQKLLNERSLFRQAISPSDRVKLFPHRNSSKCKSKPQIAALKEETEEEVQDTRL
In short: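 Surface-expression read-out: luminol luminescence from an HRP tag in the fourth exofacial loop of F508delCFTR, in doxycycline-induced (0.5 μg/mL, 72 h) CFBE41o- cells. Compound plus 2 μM co-corrector added for 18-24 h at 33° C., 8-point 3-fold series up to 20 μM. EC50 from a sigmoidal fit with variable Hill slope, normalised to positive control, triplicate plates.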

F508delCFTR [2] = biological target: T1, F508delCFTR; assay: Cell Surface Expression-Horse Radish Peroxidase (CSE-HRP) assay, test compound without co-corrector; type: cell-based; settings: for Emax: maximum at any tested concentration, without co-corrector; for EC50: test compound without co-corrector;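 as to Emax: percent of on-plate 2 µM positive control corrector response over DMSO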
In short: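 Compound without co-corrector was tested at eight 3-fold concentrations, top 20 μM, for 18-24 h at 33° C on doxycycline-induced (0.5 μg/mL, 72 h) CFBE41o- F508delCFTR-HRP cells. After DPBS washes, luminol luminescence gave % activity relative to on-plate positive control minus DMSO; EC50 came from triplicate-plate sigmoidal fitting.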

[3] = normalized to positive control, with 2 μM co-corrector
[4] = CSE-HRP assay, test compound with 2 μM co-corrector
[5] = normalized to on-plate positive control, with 2 μM co-corrector
[6] = normalized to on-plate positive control

Maximum % activity (with co-corrector) (F508delCFTR [1]; [3])	EC50 (F508delCFTR [1]; with 2 μM co-corrector) [µM]	Emax (F508delCFTR [2]; normalized to positive control) [%]	EC50 (F508delCFTR [2]) [µM]	EC50 (F508delCFTR [1]; [4]) [µM]	Maximum % activity (with co-corrector) (F508delCFTR [1]; [5])	EC50 (F508delCFTR [2]; CSE-HRP assay) [µM]	Emax (F508delCFTR [2]; [6]) [%]	Structure (SMILES)
+++ (≥350)	< 3	≥ 150	< 3	–	–	–	–	COc1ccc(CC(C)C)c2c1C(C(=O)NS(=O)(=O)c1cccc3ncccc13)CC2 (centres unmarked) [Example I-140, 7-methoxy-4-(2-methylpropyl)-N-(quinoline-5-sulfonyl)-2,3-dihydro-1H-indene-1-carboxamide]
+++ (≥350)	< 3	≥ 150	< 3	–	–	–	–	COc1ccc(C2CCC2)c2c1[C@H](C(=O)NS(=O)(=O)c1cccc3cnn(C)c13)C2 [Example I-144, (7R)-2-cyclobutyl-5-methoxy-N-(1-methyl-1H-indazole-7-sulfonyl)bicyclo[4.2.0]octa-1,3,5-triene-7-carboxamide]
+++ (≥350)	< 3	≥ 150	< 3	–	–	–	–	COc1ccc(C2CCC2)c2c1[C@H](C(=O)NS(=O)(=O)c1cccc3c1CCCN3)C2 [Example I-146, (7R)-2-cyclobutyl-5-methoxy-N-(1,2,3,4-tetrahydroquinoline-5-sulfonyl)bicyclo[4.2.0]octa-1,3,5-triene-7-carboxamide]
+++ (≥350)	< 3	≥ 150	< 3	–	–	–	–	COc1cccc2c1C(C(=O)NS(=O)(=O)c1cccc3ccccc13)CC2(C)C (centres unmarked) [Example I-149, 7-methoxy-3,3-dimethyl-N-(naphthalene-1-sulfonyl)-2,3-dihydro-1H-indene-1-carboxamide]
+++ (≥350)	< 3	≥ 150	3 to 10	–	–	–	–	COc1ccc(C2CCC2)c2c1[C@H](C(=O)NS(=O)(=O)c1cccn3nccc13)CC2 [Example I-151, (1R)-4-cyclobutyl-7-methoxy-N-(pyrazolo[1,5-a]pyridine-4-sulfonyl)-2,3-dihydro-1H-indene-1-carboxamide]
+++ (≥350)	< 3	≥ 150	3 to 10	–	–	–	–	COc1cccc2c1C(C(=O)NS(=O)(=O)c1cccc3ncccc13)CC2(C)C (centres unmarked) [Example I-152, 7-methoxy-3,3-dimethyl-N-(quinoline-5-sulfonyl)-2,3-dihydro-1H-indene-1-carboxamide]
+++ (≥350)	< 3	≥ 150	3 to 10	–	–	–	–	COc1cccc2c1[C@@H](C(=O)NS(=O)(=O)c1cccc3ncccc13)CC2(C)C [Example I-153, (1S)-7-methoxy-3,3-dimethyl-N-(quinoline-5-sulfonyl)-2,3-dihydro-1H-indene-1-carboxamide]
+++ (≥350)	< 3	≥ 150	3 to 10	–	–	–	–	COc1cccc2c1[C@H](C(=O)NS(=O)(=O)c1cccc3ncccc13)CC2(C)C [Example I-154, (1R)-7-methoxy-3,3-dimethyl-N-(quinoline-5-sulfonyl)-2,3-dihydro-1H-indene-1-carboxamide]
+++ (≥350)	< 3	≥ 150	3 to 10	–	–	–	–	COc1ccc(C2CCC2)c2c1[C@H](C(=O)NS(=O)(=O)c1cccc3ncc(C)n13)C2 [Example I-155, (7R)-2-cyclobutyl-5-methoxy-N-(3-methylimidazo[1,2-a]pyridine-5-sulfonyl)bicyclo[4.2.0]octa-1,3,5-triene-7-carboxamide]
+++ (≥350)	3 to 10	50 to 150	3 to 10	–	–	–	–	Cc1ccccc1S(=O)(=O)NC(=O)C1CCc2c(Cl)cccc21 (centres unmarked) [Example II-3, 4-chloro-N-(2-methylbenzene-1-sulfonyl)-2,3-dihydro-1H-indene-1-carboxamide]
+++ (≥350)	3 to 10	50 to 150	3 to 10	–	–	–	–	Cc1ccccc1S(=O)(=O)NC(=O)C1CCc2c(-c3ccccc3)cccc21 (centres unmarked) [Example II-36, N-(2-methylbenzene-1-sulfonyl)-4-phenyl-2,3-dihydro-1H-indene-1-carboxamide]
++ (≥150 and <350)	3 to 10	< 50	3 to 10	–	–	–	–	O=C(NS(=O)(=O)c1cccc2ccccc12)C1(CN2CCCC2)CCc2c(Cl)cccc21 (centres unmarked) [Example II-47, 4-chloro-N-(naphthalene-1-sulfonyl)-1-[(pyrrolidin-1-yl)methyl]-2,3-dihydro-1H-indene-1-carboxamide]
+ (<150)	≥ 10	< 50	≥ 10	–	–	–	–	CCC1(C(=O)NS(=O)(=O)N2CCCc3ccccc32)CCc2c(Cl)cccc21 (centres unmarked) [Example II-80, 4-chloro-N-(3,4-dihydroquinoline-1(2H)-sulfonyl)-1-ethyl-2,3-dihydro-1H-indene-1-carboxamide]
+++ (≥350)	< 3	50 to 150	3 to 10	–	–	–	–	O=C(NS(=O)(=O)c1cccc2ccccc12)C1(CO)CCc2c(Cl)cccc21 (centres unmarked) [Example II-81, 4-chloro-1-(hydroxymethyl)-N-(naphthalene-1-sulfonyl)-2,3-dihydro-1H-indene-1-carboxamide]
+++ (≥350)	< 3	≥ 150	3 to 10	–	–	–	–	COc1cccc2c1C(C(=O)NS(=O)(=O)c1cccc3ccccc13)CCC2 (centres unmarked) [Example II-115, 8-methoxy-N-(naphthalene-1-sulfonyl)-1,2,3,4-tetrahydronaphthalene-1-carboxamide]
+++ (≥350)	3 to 10	50 to 150	3 to 10	–	–	–	–	O=C(NS(=O)(=O)c1cccc2ccccc12)C1CCCc2c(Cl)ccc(O)c21 (centres unmarked) [Example II-128, 5-chloro-8-hydroxy-N-(naphthalene-1-sulfonyl)-1,2,3,4-tetrahydronaphthalene-1-carboxamide]
–	–	–	–	3 to 10	+ (<150)	≥ 10	< 50	O=C(NS(=O)(=O)c1cccc2ccccc12)C1(CCN2CCCC2)CCc2c(Cl)cccc21 (centres unmarked) [Example III-111, 4-chloro-N-(naphthalene-1-sulfonyl)-1-[2-(pyrrolidin-1-yl)ethyl]-2,3-dihydro-1H-indene-1-carboxamide]
–	–	–	–	3 to 10	++ (≥150 and <350)	3 to 10	< 50	COCCN(C)CCC1(C(=O)NS(=O)(=O)c2cccc3ccccc23)CCc2c(Cl)cccc21 (centres unmarked) [Example III-112, 4-chloro-1-{2-[(2-methoxyethyl)(methyl)amino]ethyl}-N-(naphthalene-1-sulfonyl)-2,3-dihydro-1H-indene-1-carboxamide]
–	–	–	–	≥ 10	+ (<150)	≥ 10	< 50	CCC1(C(=O)N(C)S(=O)(=O)c2cccc3ccccc23)CCc2c(Cl)cccc21 (centres unmarked) [Example III-150, 4-chloro-1-ethyl-N-methyl-N-(naphthalene-1-sulfonyl)-2,3-dihydro-1H-indene-1-carboxamide]
–	–	–	–	≥ 10	+ (<150)	≥ 10	< 50	COCC1(C(=O)NS(=O)(=O)c2cccc3ccccc23)CCc2c(Cl)cccc21 (centres unmarked) [Example III-151, 4-chloro-1-(methoxymethyl)-N-(naphthalene-1-sulfonyl)-2,3-dihydro-1H-indene-1-carboxamide]

— patent publication US20180244611A1, “Modulators of the Cystic Fibrosis Transmembrane Conductance Regulator Protein and Methods of Use” (AbbVie S.à.r.l., priority 2017, published 2018)
